The values below come from patent US20240358744A1, “WOUND HEALING DRESSINGS AND FORMULATIONS AND METHODS OF USE THEREOF” (POLAROID IP B.V., priority 2023, published 2024).

The subject of data set [1] is Escherichia coli ATCC 25922. Description: MBC, spot plating after 24 h. The note with it: for MBC EC25922: Table 18.
Protocol: (§5) To determine MBC compound concentrations breakpoints were estimated from MIC curves. Overnight cultures were set up as described above for all bacterial strains. The following day overnight cultures were adjusted to give a cell density of 5×10^5 cells per mL. Briefly, cultures were adjusted to the McFarland standard (0.08-0.12) and diluted (1:150). Adjusted cultures were inoculated into 96 well plates with 50 μL sterile Muller-Hinton broth (MHB) and 2 concentrations of each compound. […] MBC cultures were quantified by serial dilution in a 96 well plate and spot plating onto Muller-Hinton agar (MHA). MHA plates were incubated at 37° C. for 24 h and counted. Results are presented as CFU per mL.
(§6) To determine MBC compound concentrations, breakpoints were estimated from MIC curves. Overnight cultures were set up as described above for all bacterial strains. The following day overnight cultures were adjusted to give a cell density of 5×10^5 cells per mL. Briefly, cultures were adjusted to the McFarland standard (0.08-0.12) and diluted (1:150). Adjusted cultures were inoculated into 96 well plates with 50 μL sterile Muller-Hinton broth (MHB) and 2 concentrations of each compound. […] MBC cultures were quantified by serial dilution in a 96 well plate and spot plating onto Muller-Hinton agar (MHA). MHA plates were incubated at 37° C. for 24 hours and counted.
Data set [2] relates to Primary Human Dermal Fibroblast (HDFs). Nature of the data set: LDH cytotoxicity assay, HDF. In kind it is cell-based. The note with it: Table 16, summarized cell toxicity value, 24 hours treatment. As for the experimental part:
(§1) Primary Human Dermal Fibroblast (HDFs) and Human Keratinocyte (HaCaT) cells were selected for cytotoxicity and proliferation testing. HDFs were cultured in high glucose, no glutamine, no phenol red, Dulbecco's Modified Eagle Medium (DMEM) (GIBCO™). HDF media was further supplemented with 10% heat-inactivated fetal bovine serum (GIBCO™), 1% L-glutamine (GIBCO™) and 1% Penicillin-streptomycin (GIBCO™). HaCaTs cells were cultured in high glucose, no glutamine, no calcium DMEM (GIBCO™) supplemented with 10% heat inactivated foetal bovine serum, 1% L-glutamine, 1% Penicillin-streptomycin 1 mM calcium chloride (Sigma) throughout.
(§2) Mammalian cell populations were maintained in standard culture conditions at 37° C., 5% CO2 and >95% relative humidity. Upon reaching 80% total confluency, cells were removed from the incubator, the culture media aspirated, and the monolayer washed with Dulbecco's […] (DPBS). After washing, 10 mL of 1% trypsin (GIBCO™) was added to the flask and incubated to facilitate the detachment of cells from the culture vessel. Following dissociation, 10 mL of culture media was then added to each flask to neutralize the trypsin enzyme activity. The total 20-mL flask volume was transferred into a universal tube and centrifuged at 400 rcf for 5 minutes. Once complete, the pellet of cells was re-suspended in 10 mL warmed culture media and the number of cells per mL was determined using a hemocytometer counting chamber. Cell suspensions were then adjusted to 5×10^4 cells/mL for HDFs and 1×10^5 cells/mL for HaCaTs. 100 μL of the cell suspension was added to each well of a sterile, cell-culture-treated 96-well microtiter plate. The plates were incubated in standard culture conditions for 16-24 hours to allow cellular adherence to the culture vessel. […] Culture plates were removed from the incubator, the media removed; and monolayers washed with 100 μL of warmed DPBS. The contents of the test item dilution plates were transferred to the culture plates. […]
(§3) The secretion of lactate dehydrogenase (LDH) enzyme was used for quantitatively measuring cell damage and cytotoxicity. As damage to the cell plasma membrane releases LDH into the cell culture media, the extracellular LDH in the media can be quantified by a coupled enzymatic reaction in which LDH catalyzes the conversion of lactate to pyruvate via NAD+ reduction to NADH. […]
(§4) Following incubation with the selected compounds, 50 μL of media from each well was transferred to the corresponding well of a fresh 96 well culture plate. The presence of Lactate dehydrogenase (LDH) was then quantified using the INVITROGEN™ CyQUANT™ LDH Cytotoxicity Assay, fluorescence kit. Total fluorescence was measured by reading the plates on a plate reader at an excitation of 560 nm and an emission of 590 nm. […]

Data set [3] concerns Enterococcus faecalis ATCC 19433. Nature of the data set: MIC, broth microdilution in MH broth (resazurin). The note with it: Table 17, modified Gompertz model.
Data set [4] relates to Klebsiella pneumoniae KL1. Nature of the data set: MIC, broth microdilution in MH broth (resazurin). The note with it: Table 17; modified Gompertz model; not marked ^: unreliable estimation, interpret with caution.
The test system of data set [5] is Human Keratinocyte (HaCaT) cells. Nature of the data set: LDH cytotoxicity assay, HaCaT. In kind it is cell-based. The note with it: Table 16, summarized cell toxicity value, 24 hours treatment. As for the experimental part: as §1, §2, §3, §4
Data set [6] deals with Klebsiella pneumoniae KL1. Description: MBC, spot plating after 24 h.
Protocol: as §5, §6
In data set [7] the test system is Staphylococcus aureus MR1. Description: MIC, broth microdilution in MH broth (resazurin). The note with it: Table 17; modified Gompertz model; not marked ^: unreliable estimation, interpret with caution.
Data set [8] deals with Pseudomonas aeruginosa ATCC 27853. Description: MIC, broth microdilution in MH broth (resazurin). The note with it: Table 17; modified Gompertz model; not marked ^: unreliable estimation, interpret with caution.
Data set [9] deals with Escherichia coli ATCC 25922. Nature of the data set: MIC, broth microdilution in MH broth (resazurin). The note with it: Table 17; modified Gompertz model; not marked ^: unreliable estimation, interpret with caution.
For data set [10], the system named is Enterococcus faecalis ATCC 51299. Description: MBC, spot plating after 24 h. The note with it: Enterococcus faecalis EF51299; Example 11.
Protocol: as §5, §6
Data set [11] deals with Staphylococcus aureus MR1. Description: MBC, spot plating after 24 h. The note with it: Example 11.
Protocol: as §5, §6
The subject of data set [12] is Enterococcus faecalis ATCC 19433. Description: MBC, spot plating after 24 h. The note with it: Enterococcus faecalis EF19433; Example 11.
Protocol: as §5, §6
In data set [13] the test system is Staphylococcus aureus ATCC 29213. Nature of the data set: MBC, spot plating after 24 h. The note with it: Staphylococcus aureus 29213; Example 11.
Protocol: as §5, §6
Data set [14] deals with Pseudomonas aeruginosa ATCC 27853. Nature of the data set: MBC, spot plating after 24 h. The note with it: Pseudomonas aeruginosa 27853; Example 11.
Protocol: as §5, §6
Data set [15] has as its system Staphylococcus aureus NRS384. Format: cell-based. The note with it: Example 11.
Data set [16] is described as follows: Assessment of MIC of select compounds, DMSO stocks (Example 8, Table 21). In kind it is cell-based.
Data set [17] has as its system Staphylococcus aureus NRS384. Description: Murine wound infection model, bacterial CFU/wound (Example 6). The note with it: Study 2 pilot; daily application of vancomycin (10 μg per wound).
Data set [18] concerns S. aureus NRS 384. Description: Mouse Staphylococcus aureus-induced wound infection model, bacteria load in wound site (Studies I-V). The note with it: for Ig(CFU/wound site) / ΔIg(CFU/wound site) vs infection control: Study III (Table 12), 1 mg/ml.
Where [19] appears, read: 10 μL/wound site, 10 μg/wound site, twice a day, 24 h p.i.
Where [20] appears, read: 10 μL/wound site, 10 μg/wound site, twice a day, 48 h p.i.
Setting [21] is: 10 μL/wound site, 10 μg/wound site, twice a day, 72 h p.i.
Where [22] appears, read: 50 μL/wound site, 50 μg/wound site, twice a day, 24 h p.i.

Converted amounts (≈) assume the structure as drawn.

As for `CCCCCCCCCCCCCCCCCC[N+](C)(C)CCOCCO.[Br-]` [39637 105543], the “MBC EC25922” value in [1] was 25 µM.
`CCCCCCCCCCCCCCCCCC[N+](C)(C)CCOCCO.[Br-]` [Compound 39637_105543]: the “Mammalian Cell Cytotoxicity, HDF” value in data set [2] turned out to be 6.3 µM. Also, the “MIC EF19433” value in data set [3] (marked ^: reliable estimation of MIC) is 3.20^ μM. Besides, the “MIC KL1” value in [4] is given as “+infinity”. For the same compound, in [5], the “Mammalian Cell Cytotoxicity, HaCaT” value came out at 6.3 µM.
For `CCCCCCCCCCCCCCCCCC[N+](C)(C)CCOCCO.[Br-]` [Compound 39637_109466], in data set [2], the “Mammalian Cell Cytotoxicity, HDF” value worked out at 6.3 µM. Further, in [5], the “Mammalian Cell Cytotoxicity, HaCaT” value was determined as 6.3 µM. In [6] (Table 18), the “MBC KL1” value was 50 µM. Besides, the “MBC EC25922” value in data set [1] came to 25 µM.
On to `CCCCCCCCCCCC[N+](C)(C)CCOCCO.[Br-]` [Compound 40597_109444], for which the “Mammalian Cell Cytotoxicity, HDF” value in data set [2] turned out to be 100 µM. In addition, the “MIC KL1” value in data set [4] was 0.01 µM. Also, in data set [7], the “MIC MR1” value was 0.94 µM. Further, the “Mammalian Cell Cytotoxicity, HaCaT” value in [5] worked out at 100 µM.
Take `CCCCCC[N+](C)(C)CCOCCO.[Br-]` [Compound 40598_109448]: the “MIC PA27853” value in data set [8] is 0.06 µM. The “Mammalian Cell Cytotoxicity, HDF” value in [2] was >100 µM. Also, the “MIC EF19433” value in data set [3] (not marked ^: unreliable estimation, interpret with caution) was “Unstable”. Further, in data set [5], the “Mammalian Cell Cytotoxicity, HaCaT” value is >100 µM. Besides, the “MIC EC25922” value in data set [9] was 0.83 µM.
For `CN[C@H](CC(C)C)C(=O)N[C@H]1C(=O)N[C@@H](CC(N)=O)C(=O)N[C@H]2C(=O)N[C@H]3C(=O)N[C@H](C(=O)N[C@H](C(=O)O)c4cc(O)cc(O)c4-c4cc3ccc4O)[C@H](O)c3ccc(c(Cl)c3)Oc3cc2cc(c3O[C@@H]2O[C@H](CO)[C@@H](O)[C@H](O)[C@H]2O[C@H]2C[C@](C)(N)[C@H](O)[C@H](C)O2)Oc2ccc(cc2Cl)[C@H]1O` [Van], in data set [10], the “MBC Concentration (μM) D” value is 0.04 µM (≈ 0.058 µg/mL). Further, the “MBC Concentration (μM) B” value in [11] worked out at 0.02 µM (≈ 0.029 µg/mL). Further, the “MBC Concentration (μM) E” value in data set [12] amounted to 0.08 µM (≈ 0.116 µg/mL). Moreover, in data set [13], the “MBC Concentration (μM) A” value was 0.02 µM (≈ 0.029 µg/mL). Besides, the “MBC Concentration (μM) G” value in [14] was found to be 2.50 µM (≈ 3.62 µg/mL). Also, the “MBC Concentration (μM) F” value in data set [6] (Klebisella pneumoniae KL1, Example 11) was found to be 1.25 µM (≈ 1.81 µg/mL). Further, the “MBC Concentration (μM) H” value in [1] (Escherichia coli EC25922, Example 11) came out at 0.31 µM (≈ 0.449 µg/mL). For the same compound, the “MBC Concentration (μM) C” value in data set [15] worked out at 0.02 µM (≈ 0.029 µg/mL).
For the compound `CN[C@H](CC(C)C)C(=O)N[C@H]1C(=O)N[C@@H](CC(N)=O)C(=O)N[C@H]2C(=O)N[C@H]3C(=O)N[C@H](C(=O)N[C@H](C(=O)O)c4cc(O)cc(O)c4-c4cc3ccc4O)[C@H](O)c3ccc(c(Cl)c3)Oc3cc2cc(c3O[C@@H]2O[C@H](CO)[C@@H](O)[C@H](O)[C@H]2O[C@H]2C[C@](C)(N)[C@H](O)[C@H](C)O2)Oc2ccc(cc2Cl)[C@H]1O` [Vancomycin], the “MIC Concentration” value in data set [16] (Enterococcus faecalis EF19433) was determined as 5.00 µM; in [16] (Escherichia coli EC25922) it was 0.63 µM; in data set [16] (Klebisella oxytoca KL1), 0.63 µM; in data set [16] (Pseudomonas aeruginosa 27853), 5.00 µM; in [16] (Staphylococcus aureus 29213), 0.04 µM; in [16] (Staphylococcus aureus MR1) it was 0.04 µM. Moreover, the “MIC Concentration” value in [16] (Staphylococcus aureus NRS384) was 0.04 µM. In [17], the “log reduction in wound S. aureus at 24 hrs post-seeding” value is on record as 1 log. Moreover, the “log reduction in wound S. aureus at 72 hrs post-seeding” value in data set [17] was determined as 1 log. Also, the “Ig (CFU/wound site) 12 h p.i.” value in [18] (Study I, inoculum 4.20E+06 CFU/wound site, 39637 and 20-1 100 μM, 50 μL/wound site, once a day, Vancomycin 1 mg/ml, 10 μL/wound site, twice a day, starting at 5 min p.i.) is given as 8.47 ± 0.22 Ig (CFU/wound site). Moreover, in [18] (Study I, same regimens as E1), the “Ig (CFU/wound site) 24 h p.i.” value is recorded as 7.67 ± 0.60 Ig (CFU/wound site). Moreover, in data set [18] (Study I, same regimens as E1), the “ΔIg (CFU/wound site) vs 12 h infection control” value is −0.11 ± 0.22 Ig (CFU/wound site). Besides, the “ΔIg (CFU/wound site) vs 24 h infection control” value in [18] (Study I, same regimens as E1) is listed as −1.12 ± 0.60 Ig (CFU/wound site). Further, the “effect at 12-hour post infection” value in data set [18] (Study I, single dose at 10 μg) is reported as “not manifest”. Moreover, the “Ig(CFU/wound site)” value was 7.67 Ig(CFU/wound site) in data set [18] (setting [19]), 5.29 Ig(CFU/wound site) in data set [18] (setting [20]), 5.12 Ig(CFU/wound site) in [18] (setting [21]) and 4.37 Ig(CFU/wound site) in data set [18] (setting [22]). In addition, the “ΔIg(CFU/wound site) vs infection control” value in [18] (setting [19]) is on record as −1.11 Ig(CFU/wound site); in data set [18] (setting [20]), −3.28 Ig(CFU/wound site); in data set [18] (setting [21]) it was −2.83 Ig(CFU/wound site); in data set [18] (setting [22]) it was −4.40 Ig(CFU/wound site).
